# Earlier results as cited in patent US7794750B2, “Controlled-release formulations, method of manufacture, and use thereof” (Mutual Pharmaceutical Company, Inc., priority 2008, dated 2010).
# Structures can show the parent of a compound that is named as a salt.
# Conditions: 25° C., pH of about 7
structure (smiles),measurement,value
"OCCOCCN1CCN(C2=Nc3ccccc3Sc3ccccc32)CC1 [Quetiapine fumarate, quetiapine fumarate]",aqueous solubility,3290 µg/mL
